The values that follow come from ChEMBL document CHEMBL3627608, “Crystal structures of human RIP2 kinase catalytic domain complexed with ATP-competitive inhibitors: Foundations for understanding inhibitor selectivity” (Bioorg Med Chem, 2015).

For assay [1], the target named is T1, Ephrin type-A receptor 8 (Homo sapiens) (UniProt P29322).
T1 sequence (whole entry): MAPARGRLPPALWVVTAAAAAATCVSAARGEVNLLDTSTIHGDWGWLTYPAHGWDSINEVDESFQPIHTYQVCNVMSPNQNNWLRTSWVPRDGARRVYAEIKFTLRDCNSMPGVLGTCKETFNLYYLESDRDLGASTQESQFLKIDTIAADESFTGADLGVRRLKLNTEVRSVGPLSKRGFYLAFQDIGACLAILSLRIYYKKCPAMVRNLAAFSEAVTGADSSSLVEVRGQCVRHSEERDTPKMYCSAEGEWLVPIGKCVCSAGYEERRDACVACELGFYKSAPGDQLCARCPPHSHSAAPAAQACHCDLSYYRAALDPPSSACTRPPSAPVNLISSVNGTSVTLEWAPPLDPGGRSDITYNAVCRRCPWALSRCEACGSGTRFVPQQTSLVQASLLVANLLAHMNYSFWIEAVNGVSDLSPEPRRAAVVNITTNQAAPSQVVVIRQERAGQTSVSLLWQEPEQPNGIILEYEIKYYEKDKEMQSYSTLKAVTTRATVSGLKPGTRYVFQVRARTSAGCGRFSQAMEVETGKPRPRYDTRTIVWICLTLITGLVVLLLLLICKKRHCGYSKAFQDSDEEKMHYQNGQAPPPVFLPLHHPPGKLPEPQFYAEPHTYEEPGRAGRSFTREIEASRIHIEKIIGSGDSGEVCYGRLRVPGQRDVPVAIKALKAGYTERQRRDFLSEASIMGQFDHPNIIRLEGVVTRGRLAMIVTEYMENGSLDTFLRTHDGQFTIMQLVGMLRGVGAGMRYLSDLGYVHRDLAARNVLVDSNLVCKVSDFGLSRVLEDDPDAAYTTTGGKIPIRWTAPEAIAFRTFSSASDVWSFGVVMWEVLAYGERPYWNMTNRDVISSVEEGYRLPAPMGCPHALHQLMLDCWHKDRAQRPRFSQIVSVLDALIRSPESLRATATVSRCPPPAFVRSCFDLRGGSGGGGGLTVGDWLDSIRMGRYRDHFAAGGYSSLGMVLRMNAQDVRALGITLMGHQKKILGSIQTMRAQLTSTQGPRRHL
Briefly: Inhibition of EPHA8 (unknown origin) at 10 uM after 120 mins P33 radiolabeled kinase activity assay.

The target of assay [2] is Dual specificity protein kinase CLK4 (Homo sapiens) (UniProt Q9HAZ1). As to the kind of experiment: Inhibition of CLK4 (unknown origin) at 10 uM after 120 mins P33 radiolabeled kinase activity assay.
In assay [3] the target is T2, Serine/threonine-protein kinase DCLK1 (Homo sapiens) (UniProt O15075).
T2 sequence (whole entry): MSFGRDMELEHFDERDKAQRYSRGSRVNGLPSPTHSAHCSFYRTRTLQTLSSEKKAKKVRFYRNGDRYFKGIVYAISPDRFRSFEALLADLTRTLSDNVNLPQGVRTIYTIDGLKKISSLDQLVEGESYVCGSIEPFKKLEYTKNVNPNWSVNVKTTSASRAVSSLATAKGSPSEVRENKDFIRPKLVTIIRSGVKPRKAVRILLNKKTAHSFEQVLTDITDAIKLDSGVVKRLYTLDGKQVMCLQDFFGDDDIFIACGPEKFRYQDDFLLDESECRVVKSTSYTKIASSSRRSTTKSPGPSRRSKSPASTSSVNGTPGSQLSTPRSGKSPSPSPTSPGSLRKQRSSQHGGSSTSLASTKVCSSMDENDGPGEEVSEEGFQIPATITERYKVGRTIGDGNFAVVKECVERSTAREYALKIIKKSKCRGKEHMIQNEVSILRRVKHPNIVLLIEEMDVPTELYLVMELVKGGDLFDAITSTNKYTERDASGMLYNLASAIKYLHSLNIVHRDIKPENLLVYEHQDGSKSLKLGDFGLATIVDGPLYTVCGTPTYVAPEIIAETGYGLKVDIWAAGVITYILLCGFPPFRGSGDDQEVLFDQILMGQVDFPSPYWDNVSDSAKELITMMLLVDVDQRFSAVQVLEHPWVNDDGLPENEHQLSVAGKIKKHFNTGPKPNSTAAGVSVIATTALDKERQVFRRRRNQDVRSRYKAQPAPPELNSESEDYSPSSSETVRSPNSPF
Briefly: Inhibition of DCAMKL1 (unknown origin) at 10 uM after 120 mins P33 radiolabeled kinase activity assay.

Assay [4] has as its target T3, Inhibitor of nuclear factor kappa-B kinase subunit epsilon (Homo sapiens) (UniProt Q14164).
T3 sequence (whole entry): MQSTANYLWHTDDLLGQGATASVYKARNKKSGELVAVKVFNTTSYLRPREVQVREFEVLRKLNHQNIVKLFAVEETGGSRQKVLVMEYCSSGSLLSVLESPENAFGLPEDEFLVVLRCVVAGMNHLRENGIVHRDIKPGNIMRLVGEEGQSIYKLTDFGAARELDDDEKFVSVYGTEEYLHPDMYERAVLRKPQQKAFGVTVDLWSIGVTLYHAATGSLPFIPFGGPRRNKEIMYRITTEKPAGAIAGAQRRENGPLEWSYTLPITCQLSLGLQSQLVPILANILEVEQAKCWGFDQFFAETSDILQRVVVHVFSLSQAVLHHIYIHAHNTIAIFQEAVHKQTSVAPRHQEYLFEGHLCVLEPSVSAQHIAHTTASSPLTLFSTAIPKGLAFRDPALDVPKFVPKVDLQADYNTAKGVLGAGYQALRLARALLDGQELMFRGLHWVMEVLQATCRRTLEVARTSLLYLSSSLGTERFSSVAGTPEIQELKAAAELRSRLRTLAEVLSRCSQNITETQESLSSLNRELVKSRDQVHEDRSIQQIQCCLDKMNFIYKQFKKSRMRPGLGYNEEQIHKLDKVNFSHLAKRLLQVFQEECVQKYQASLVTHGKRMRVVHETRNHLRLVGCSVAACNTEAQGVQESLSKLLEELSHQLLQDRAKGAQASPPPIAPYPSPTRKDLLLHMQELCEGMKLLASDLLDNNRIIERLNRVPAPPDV
Briefly: Inhibition of IKKepsilon (unknown origin) at 10 uM after 120 mins P33 radiolabeled kinase activity assay.

In assay [5] the target is Misshapen-like kinase 1 (Homo sapiens) (UniProt Q8N4C8). Briefly: Inhibition of MINK (unknown origin) at 10 uM after 120 mins P33 radiolabeled kinase activity assay.
The target in assay [6] is MAP kinase-activated protein kinase 3 (Homo sapiens) (UniProt Q16644). Briefly: Inhibition of MAPKAPK3 (unknown origin) at 10 uM after 120 mins P33 radiolabeled kinase activity assay.
The target of assay [7] is Fibroblast growth factor receptor 2 (Homo sapiens) (UniProt P21802). As to the kind of experiment: Inhibition of FGFR2 (unknown origin) at 10 uM after 120 mins P33 radiolabeled kinase activity assay.

Structures are written as SMILES.

Sequence of Fibroblast growth factor receptor 2 (Homo sapiens) (P21802 22-821 limits assumed): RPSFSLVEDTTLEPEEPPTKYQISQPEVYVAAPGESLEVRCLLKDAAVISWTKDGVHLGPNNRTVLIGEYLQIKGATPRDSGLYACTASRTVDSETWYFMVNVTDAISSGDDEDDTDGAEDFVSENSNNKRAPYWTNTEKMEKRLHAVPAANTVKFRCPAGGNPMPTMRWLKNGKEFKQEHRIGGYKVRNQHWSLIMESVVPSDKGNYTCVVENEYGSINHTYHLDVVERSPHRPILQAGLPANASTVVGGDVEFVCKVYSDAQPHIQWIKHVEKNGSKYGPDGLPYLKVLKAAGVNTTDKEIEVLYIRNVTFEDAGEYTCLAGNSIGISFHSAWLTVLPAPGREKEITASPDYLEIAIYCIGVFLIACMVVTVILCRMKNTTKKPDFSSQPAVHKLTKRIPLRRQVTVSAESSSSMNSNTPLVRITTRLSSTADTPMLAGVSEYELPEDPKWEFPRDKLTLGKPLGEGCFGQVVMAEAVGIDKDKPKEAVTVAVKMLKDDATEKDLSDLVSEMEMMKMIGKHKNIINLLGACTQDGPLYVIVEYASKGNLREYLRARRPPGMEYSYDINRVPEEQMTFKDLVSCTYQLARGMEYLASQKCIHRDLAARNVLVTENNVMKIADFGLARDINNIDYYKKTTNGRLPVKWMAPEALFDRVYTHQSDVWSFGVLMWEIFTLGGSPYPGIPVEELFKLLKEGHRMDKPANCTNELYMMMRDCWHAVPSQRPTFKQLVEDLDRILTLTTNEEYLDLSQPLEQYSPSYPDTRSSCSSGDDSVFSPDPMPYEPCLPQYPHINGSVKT
Sequence of Misshapen-like kinase 1 (Homo sapiens) (Q8N4C8 whole entry, looked up): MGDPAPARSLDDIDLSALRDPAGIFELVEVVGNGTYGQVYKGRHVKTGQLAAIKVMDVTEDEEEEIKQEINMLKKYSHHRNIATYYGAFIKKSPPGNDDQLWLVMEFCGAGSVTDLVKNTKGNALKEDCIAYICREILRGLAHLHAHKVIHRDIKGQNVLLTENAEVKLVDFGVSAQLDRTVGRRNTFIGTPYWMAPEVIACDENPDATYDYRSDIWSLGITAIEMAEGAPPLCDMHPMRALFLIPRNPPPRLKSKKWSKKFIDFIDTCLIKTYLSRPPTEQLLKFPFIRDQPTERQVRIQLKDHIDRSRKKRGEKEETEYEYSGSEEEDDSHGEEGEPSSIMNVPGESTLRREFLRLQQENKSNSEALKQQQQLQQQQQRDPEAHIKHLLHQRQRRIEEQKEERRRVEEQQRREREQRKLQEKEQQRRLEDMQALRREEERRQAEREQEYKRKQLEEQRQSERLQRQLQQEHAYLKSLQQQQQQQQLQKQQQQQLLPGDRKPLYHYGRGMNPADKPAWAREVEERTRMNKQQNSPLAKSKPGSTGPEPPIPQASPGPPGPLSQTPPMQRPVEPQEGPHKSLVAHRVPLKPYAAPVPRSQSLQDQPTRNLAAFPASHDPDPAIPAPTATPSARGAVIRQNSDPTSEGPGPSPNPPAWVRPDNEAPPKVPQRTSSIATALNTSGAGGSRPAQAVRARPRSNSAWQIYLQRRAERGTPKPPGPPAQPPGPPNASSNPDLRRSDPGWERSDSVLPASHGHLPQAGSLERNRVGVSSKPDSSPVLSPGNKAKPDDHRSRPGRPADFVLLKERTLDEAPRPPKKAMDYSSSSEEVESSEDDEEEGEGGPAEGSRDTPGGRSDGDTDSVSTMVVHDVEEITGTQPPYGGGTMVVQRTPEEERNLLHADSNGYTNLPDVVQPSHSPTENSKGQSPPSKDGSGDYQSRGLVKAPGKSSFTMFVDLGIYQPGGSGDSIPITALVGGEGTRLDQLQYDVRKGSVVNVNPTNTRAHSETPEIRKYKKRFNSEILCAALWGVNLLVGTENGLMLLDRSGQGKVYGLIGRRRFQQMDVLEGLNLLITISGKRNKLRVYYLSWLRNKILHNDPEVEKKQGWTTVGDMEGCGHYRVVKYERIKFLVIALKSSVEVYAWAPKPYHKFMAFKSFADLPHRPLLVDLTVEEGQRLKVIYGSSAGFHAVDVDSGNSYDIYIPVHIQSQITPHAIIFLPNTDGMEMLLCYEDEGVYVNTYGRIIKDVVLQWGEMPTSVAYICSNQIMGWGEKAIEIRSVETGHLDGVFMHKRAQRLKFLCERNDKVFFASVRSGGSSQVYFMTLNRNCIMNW
Sequence of Dual specificity protein kinase CLK4 (Homo sapiens) (Q9HAZ1 whole entry, looked up): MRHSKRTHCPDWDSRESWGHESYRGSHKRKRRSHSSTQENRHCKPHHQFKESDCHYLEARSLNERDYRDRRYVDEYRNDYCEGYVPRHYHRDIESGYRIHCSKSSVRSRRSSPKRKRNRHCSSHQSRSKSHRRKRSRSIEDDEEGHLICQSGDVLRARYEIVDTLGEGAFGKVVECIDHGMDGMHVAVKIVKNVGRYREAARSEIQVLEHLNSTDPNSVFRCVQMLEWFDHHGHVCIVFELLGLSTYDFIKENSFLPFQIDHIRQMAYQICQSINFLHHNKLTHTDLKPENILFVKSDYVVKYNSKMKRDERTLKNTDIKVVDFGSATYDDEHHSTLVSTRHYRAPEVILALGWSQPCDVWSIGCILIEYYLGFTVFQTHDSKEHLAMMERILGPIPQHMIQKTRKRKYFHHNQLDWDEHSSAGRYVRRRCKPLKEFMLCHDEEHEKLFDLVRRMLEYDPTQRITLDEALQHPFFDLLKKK
Sequence of MAP kinase-activated protein kinase 3 (Homo sapiens) (Q16644 whole entry, looked up): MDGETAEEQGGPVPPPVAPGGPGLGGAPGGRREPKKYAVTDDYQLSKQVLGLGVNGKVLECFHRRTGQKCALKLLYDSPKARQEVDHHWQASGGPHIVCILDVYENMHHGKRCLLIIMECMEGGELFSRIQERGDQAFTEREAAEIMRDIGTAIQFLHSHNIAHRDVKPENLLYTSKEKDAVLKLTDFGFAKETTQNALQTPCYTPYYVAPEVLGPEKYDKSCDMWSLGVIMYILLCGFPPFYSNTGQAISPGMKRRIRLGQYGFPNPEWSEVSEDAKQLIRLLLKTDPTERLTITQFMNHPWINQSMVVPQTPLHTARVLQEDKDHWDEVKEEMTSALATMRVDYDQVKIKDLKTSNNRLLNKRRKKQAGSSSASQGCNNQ

Consider `CS(=O)(=O)c1cccc(Nc2nccc(-c3sc(N4CCOCC4)nc3-c3cccc(NS(=O)(=O)c4c(F)cccc4F)c3)n2)c1`, for which the inhibition (commonly the drop in the measured response relative to a control, in per cent) was 74.6% in assay [1]; 36.7% in assay [2]; 8.06% in assay [3]; 67.7% in assay [4]; 62.5% in assay [5]; -3.69% in assay [6]. In assay [7], the inhibition is 64.4%.
`CC(C)(C)c1cc(NC(=O)Nc2ccc(Oc3ccncc3)cc2)no1`: the inhibition in assay [1] was 80.5%; in assay [2], 36.5%; in assay [3], 2.97%; in assay [4] it was 1.8%; in assay [5] it was 100%; in assay [6] it was -4.91%. The inhibition in assay [7] is 79.4%.
Consider `COCCNC(=O)c1ccc2c(c1)nc(-c1cnc(-c3ccc(Cl)cc3)[nH]1)n2CCOC`, for which the inhibition in assay [1] is 12.2%; in assay [2], 41.3%; in assay [3], 4.11%; in assay [4], -0.19%; in assay [5] it was 60.7%; in assay [6], 0.16%. Moreover, the inhibition in assay [7] was 4.14%.
